Results as given in patent publication US3992391A, “1,3-Disubstituted thiourea compounds and preparation thereof” (priority 1972, dated 1976).
Where a name gives a salt, the structure may show the parent alone.

How the values were obtained:
[1] = Hypoxia test (rat), reduced pressure, survival time; type: in vivo, rats (wister-strain); details: reduced pressure 145 mmHg
Procedure: (§1) Male mice (dd-strain) and rats (wister-strain) were taken to a closed room which was filled with a gas mixture consisting of 1.5 % oxygen and 98.5 % nitrogen, or was conditioned in reduced atmospheric pressure (145 mmHg). In the other hand, mice and rats were given sodium cyanide (10 mg/kg, i.p.). These animals died after a few minutes in such conditions. 1-(3'-Pyridyl)-3-(2'-hydroxyethyl)thiourea HCl was given 1 hour before these hypoxia tests.
(§2) In the Tables data mean the increase percent of the survival time to that of control.

[2] = Prolonging effect on lethal time under various hypoxic conditions (mice and rats, all tests together); type: in vivo, mice (dd-strain) and rats (wister-strain); details: 100, 300 mg/kg p.o., 100 mg/kg s.c., and 30 mg/kg i.v.
Na^+, K^+ - ATPase [3] = assay: Cerebral Na^+, K^+ - ATPase after cold injury (freezing lesion cerebral edema); type: in vivo; details: rats
Procedure: (§3) Cerebral edema was induced in rats by a freezing lesion (dry ice) made on the exposed dura of unilateral hemisphere. Edema was measured by the increase in water content of gray and white matter, the increase in phosphorylase activity and the decrease in Na^+, K^+ - ATPase activity of the injured brain. 1-(3'-Pyridyl)-3-(2'-hydroxyethyl)thiourea HCl was given 1 hour before and 24 hours after, and the animals were killed by decapitation 48 hours after the lesion treatment.

Acute toxicity = type: in vivo; details: for LD50: mouse, in vivo, dd-strain male mice
Procedure: Acute toxicity of 1-(3'-pyridyl)-3-(2'-hydroxyethyl)thiourea hydrochloride was determined in dd-strain male mice.

[4] = Cerebral water content after cold injury (freezing lesion cerebral edema); type: in vivo; details: rats
Procedure: as §3

[5] = Hypoxia test (mouse), KCN, survival time; type: in vivo, male mice (dd-strain); details: KCN 10 mg/kg i.p.
[6] = Hypoxia test (rat), normal pressure, survival time; type: in vivo, rats (wister-strain); details: 1.5 % O2 + 98.5 % N2
Procedure: as §1, §2

Na^+, K^+ - ATPase [7] = assay: Brain Na^+, K^+ - ATPase after triethyl tin sulfate cerebral edema; type: in vivo; details: rats
Procedure: (§4) Cerebral edema was induced in rats by a triethyl tin sulfate (5.0 mg/kg, i.p.) made on the whole brain. Edema was measured by the increase in water content, lactate, phosphorylase activity and the decrease in glycogen, Na^+, K^+ - ATPase activity of the whole brain.
(§5) 1-(3'-Pyridyl)-3-(2'-hydroxyethyl)thiourea HCl was given 1 hour before and 24, 48 hours after the lesion treatment and the animals were killed by decapitation 72 hours after the lesion treatment.

[8] = system: cerebral carbohydrate and lactate metabolism; assay: Brain glycogen and lactate after triethyl tin sulfate cerebral edema; type: in vivo; details: rats
Procedure: as §4, §5

[9] = Hypoxia test (rat), KCN, survival time; type: in vivo, rats (wister-strain); details: KCN 10 mg/kg i.p.
phosphorylase = assay: Cerebral phosphorylase after cold injury (freezing lesion cerebral edema); type: in vivo; details: rats
Procedure: as §3

[10] = system: cardiac carbohydrate, lactate and fat; assay: Cardiac carbohydrate, lactate and fat under the influence of isoproterenol in an anoxic condition; type: in vivo, male rats of wister-strain; details: rats, 1.0 mg/kg i.v.
Procedure: Male rats of wister - strain served as experimental animals. Isoproterenol in a dose of 3.0 μg/kg was injected intravenously to the animals, and 5 minutes later, the rat was taken to a closed room which was filled with a mixture gas consisting of 5 % oxygen and 95 % nitrogen. After the rat was kept in the above mentioned gas chamber for 5 minutes, they were killed by cervical dislocation. The anoxic state of the heart was measured by the cardiac carbohydrate (glycogen, pyruvate), lactate and fat [non-esterifiedfatty acid (hereinafter, referred to as NEFA), triglyceride (hereinafter, referred to as TG)].

[11] = Haemodynamic action in anesthetized dogs; type: in vivo
Procedure: To study of 1-(3'-pyridyl)-3-(2'-hydroxyethyl)thiourea HCl on the haemodynamic action, five dogs of either sex were used under sodium pentobarbital anesthesia (30 mg/kg i.v.), the common carotid artery blood flow and the femoral artery blood flow were measured by the electromagnetic flow meter and the systolic blood pressure in the femoral artery was recorded with the pressure transducer.

[12] = Hypoxia test (mouse), normal pressure, survival time; type: in vivo, male mice (dd-strain); details: 1.5 % O2 + 98.5 % N2
Procedure: as §1, §2

[13] = heart, 5 minutes before isoproterenol
[14] = heart, 10 minutes before isoproterenol
[15] = heart, 30 minutes before isoproterenol
[16] = heart, 60 minutes before isoproterenol

SMILES: OCCNC(=S)Nc1cccnc1 [1-(3'-pyridyl)-3-(2'-hydroxyethyl)thiourea hydrochloride]
- increase percent of the survival time to that of control ([1]; 30 mg/kg i.v.): 135%
- increase percent of the survival time to that of control ([1]; 100 mg/kg s.c.): 132%
- survival in comparison with the survival time of each control group [2]: survived twice or more
- ATPase (Na^+, K^+ - ATPase [3]; 100 mg/kg p.o.): 1.180 ± 0.094 μ moles Pi/g/hr
- ATPase (Na^+, K^+ - ATPase [3]; 300 mg/kg p.o.): 1.226 ± 0.080 μ moles Pi/g/hr
- effect on the decrease in Na^+, K^+ - ATPase activity (Na^+, K^+ - ATPase [3]; 300 mg/kg p.o.): protective effect
- acute lethal toxic symptoms (Acute toxicity; dose of LD50 or more): sedation and paralysis
- LD50 (Acute toxicity; iv): 640 mg/kg
- LD50 (Acute toxicity; po): > 2000 mg/kg
- LD50 (Acute toxicity; sc): 1350 mg/kg
- H2O, Gray matter ([4]; 100 mg/kg p.o.): 81.5%
- H2O, White matter ([4]; 100 mg/kg p.o.): 80.3%
- effect on the increase in water content ([4]; 300 mg/kg p.o.): protective effect
- H2O, Gray matter ([4]; 300 mg/kg p.o.): 79.7%
- H2O, White matter ([4]; 300 mg/kg p.o.): 79.5%
- increase percent of the survival time to that of control ([5]; 30 mg/kg i.v.): 185%
- increase percent of the survival time to that of control ([5]; 30 mg/kg p.o.): 42%
- increase percent of the survival time to that of control ([5]; 100 mg/kg p.o.): 189%
- increase percent of the survival time to that of control ([5]; 100 mg/kg s.c.): 254%
- increase percent of the survival time to that of control ([5]; 300 mg/kg p.o.): 287%
- increase percent of the survival time to that of control ([6]; 30 mg/kg i.v.): 148%
- increase percent of the survival time to that of control ([6]; 30 mg/kg p.o.): 36%
- increase percent of the survival time to that of control ([6]; 100 mg/kg p.o.): 75%
- increase percent of the survival time to that of control ([6]; 100 mg/kg s.c.): 192%
- increase percent of the survival time to that of control ([6]; 300 mg/kg p.o.): 153%
- ATPase (Na^+, K^+ - ATPase [7]; 30 mg/kg p.o.): 1.146 μ moles Pi/g/hr
- ATPase (Na^+, K^+ - ATPase [7]; 100 mg/kg p.o.): 1.193 μ moles Pi/g/hr
- ATPase (Na^+, K^+ - ATPase [7]; 300 mg/kg p.o.): 1.246 μ moles Pi/g/hr
- effect on the decrease in Na^+, K^+ - ATPase activity of the injured brain (Na^+, K^+ - ATPase [7]; 100 and 300 mg/kg orally): antagonized
- Glycogen ([8]; 30 mg/kg p.o.): 1.03 mg/g
- Lactate ([8]; 30 mg/kg p.o.): 72.5 µg/g
- Glycogen ([8]; 100 mg/kg p.o.): 1.17 mg/g
- Lactate ([8]; 100 mg/kg p.o.): 65.5 µg/g
- Glycogen ([8]; 300 mg/kg p.o.): 1.27 mg/g
- Lactate ([8]; 300 mg/kg p.o.): 61.0 µg/g
- effect on the decrease in glycogen level of the injured brain ([8]; 100 and 300 mg/kg orally): antagonized
- effect on the increase in lactate level of the injured brain ([8]; 100 and 300 mg/kg orally): antagonized
- increase percent of the survival time to that of control ([9]; 30 mg/kg i.v.): 174%
- increase percent of the survival time to that of control ([9]; 30 mg/kg p.o.): 45%
- increase percent of the survival time to that of control ([9]; 100 mg/kg p.o.): 116%
- increase percent of the survival time to that of control ([9]; 100 mg/kg s.c.): 169%
- increase percent of the survival time to that of control ([9]; 300 mg/kg p.o.): 187%
- Phosphorylase A/T × 100 (Active phosphorylase/Total phosphorylase) (phosphorylase; 100 mg/kg p.o.): 68.5 ± 2.5
- Phosphorylase, Active (phosphorylase; 100 mg/kg p.o.): 0.242 ± 0.019 units/g
- Phosphorylase A/T × 100 (Active phosphorylase/Total phosphorylase) (phosphorylase; 300 mg/kg p.o.): 66.4 ± 2.7
- Phosphorylase, Active (phosphorylase; 300 mg/kg p.o.): 0.220 ± 0.057 units/g
- effect on the increase in phosphorylase activity (phosphorylase; 300 mg/kg p.o.): protective effect
- effect on the increase in NEFA level ([10]; heart): antagonized
- effect on the increase in lactate level ([10]; heart): antagonized
- effect on the increase in pyruvate level ([10]; heart): antagonized
- Glycogen [10, 13]: 5.68 ± 0.45 mg/g
- Lactate [10, 13]: 123.2 ± 10.7 µg/g
- NEFA [10, 13]: 4.26 ± 0.35 µM/g
- Pyruvate [10, 13]: 38.4 ± 2.42 µg/g
- TG [10, 13]: 2.15 ± 0.21 mg/g
- Glycogen [10, 14]: 6.05 ± 0.51 mg/g
- Lactate [10, 14]: 95.1 ± 8.2 µg/g
- NEFA [10, 14]: 4.12 ± 0.29 µM/g
- Pyruvate [10, 14]: 29.5 ± 3.15 µg/g
- TG [10, 14]: 1.98 ± 0.13 mg/g
- Glycogen [10, 15]: 6.97 ± 0.41 mg/g
- Lactate [10, 15]: 92.5 ± 9.7 µg/g
- NEFA [10, 15]: 3.87 ± 0.32 µM/g
- Pyruvate [10, 15]: 25.2 ± 2.07 µg/g
- TG [10, 15]: 1.87 ± 0.19 mg/g
- Glycogen [10, 16]: 5.92 ± 0.62 mg/g
- Lactate [10, 16]: 140.6 ± 12.3 µg/g
- NEFA [10, 16]: 4.58 ± 0.36 µM/g
- Pyruvate [10, 16]: 39.3 ± 2.76 µg/g
- TG [10, 16]: 2.25 ± 0.18 mg/g
- effect on the decrease in cardiac glycogen content [10]: antagonized
- significance of the antagonizing effect ([10]; administered 10 - 30 minutes before isoproterenol): significantly
- haemodynamic effects in comparison with papaverine hydrochloride [11]: relatively weak
- action to the common carotid artery blood flow ([11]; 0.1 - 1.0 mg/kg intra-common carotid artery): 12 - 39%
- carotid artery blood flow increase ([11]; 3 - 30 mg/kg intravenously): 6 - 24%
- femoral artery blood flow increase ([11]; 3 - 30 mg/kg intravenously): 4 - 18%
- blood pressure decrease ([11]; 3 - 30 mg/kg intravenously, systolic, femoral artery): 8 - 14%
- increase percent of the survival time to that of control ([12]; 30 mg/kg i.v.): 164%
- increase percent of the survival time to that of control ([12]; 30 mg/kg p.o.): 105%
- increase percent of the survival time to that of control ([12]; 100 mg/kg p.o.): 165%
- increase percent of the survival time to that of control ([12]; 100 mg/kg s.c.): 147%
- increase percent of the survival time to that of control ([12]; 300 mg/kg p.o.): 231%
